Measured values published in US10485800B2, “Mixed lineage kinase inhibitors for HIV/AIDS therapies” (UNIVERSITY OF ROCHESTER, priority 2012, dated 2019).
Where two headings read alike, the source gives them in different places.

How the values were obtained:
[1] = Standard murine pharmacokinetic model (plasma and brain AUC); type: in vivo; details: CL57 BL/6 mice, single IV injection 10 mg/kg, brain homogenate
Method: Several compounds disclosed herein were evaluated in a standard murine pharmacokinetic model. […] Three mice in each group were used for blood and brain collection at each time point. […] The brain of each animal was collected after the final blood collection. The whole tissue was harvested, excised and rinsed by saline, dried by filter paper, and then placed into one tube per tissue per animal. All samples were stored at −20° C. until bioanalysis. Compound concentrations in plasma and brain homogenate were determined using a high performance liquid chromatography/mass spectrometry (HPLC/MS/MS) method (Agilent 1100 series HPLC, AB Inc. API4000 triple-quadrupole with an ESI interface and Analyst 1.4 software). Results in the form of area under the time-versus-concentration curve (AUC) are given below in Table 10.

MLK3 = MLK3 (Homo sapiens (Human), UniProt Q16584); experiment: Radiometric filter plate MLK3 assay; type: biochemical; details: read-out: MK3 IC50
Method: After a twenty minute incubation, the reactions were washed through filter plates and read on a scintillation counter. Results are shown in Table 9 below, in which +++ indicates ≤0.1 μM, ++ indicates >0.1 μM and ≤1 μM, and + indicates >1 μM.

[2] = 2 μM cold ATP (Km), 1 μM inactive MKK7b, twenty minute incubation

MLK3, sequence (Q16584 whole entry): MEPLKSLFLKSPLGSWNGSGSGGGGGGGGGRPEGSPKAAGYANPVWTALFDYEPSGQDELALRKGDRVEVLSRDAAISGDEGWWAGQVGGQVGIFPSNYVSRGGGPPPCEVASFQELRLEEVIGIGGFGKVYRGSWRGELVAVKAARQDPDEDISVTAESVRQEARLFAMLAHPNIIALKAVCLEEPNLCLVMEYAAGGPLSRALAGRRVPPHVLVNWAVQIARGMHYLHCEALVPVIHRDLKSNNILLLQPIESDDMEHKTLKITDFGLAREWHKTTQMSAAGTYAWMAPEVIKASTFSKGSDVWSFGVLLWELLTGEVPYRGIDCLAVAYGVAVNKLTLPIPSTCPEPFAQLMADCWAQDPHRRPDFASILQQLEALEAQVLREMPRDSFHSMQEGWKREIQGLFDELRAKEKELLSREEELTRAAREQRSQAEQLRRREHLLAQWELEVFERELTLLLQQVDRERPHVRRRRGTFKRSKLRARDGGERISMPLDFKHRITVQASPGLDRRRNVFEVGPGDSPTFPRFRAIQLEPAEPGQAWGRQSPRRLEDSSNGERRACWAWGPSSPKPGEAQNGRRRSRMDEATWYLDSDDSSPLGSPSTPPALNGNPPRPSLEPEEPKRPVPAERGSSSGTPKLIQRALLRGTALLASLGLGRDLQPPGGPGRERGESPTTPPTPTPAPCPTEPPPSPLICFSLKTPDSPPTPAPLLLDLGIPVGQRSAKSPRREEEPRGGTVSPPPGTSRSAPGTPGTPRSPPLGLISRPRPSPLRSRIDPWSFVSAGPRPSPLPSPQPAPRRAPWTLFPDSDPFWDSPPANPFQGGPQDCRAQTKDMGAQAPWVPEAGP

| AUC Brain [1] | IC50 (MLK3; [2]) [nM] | IC50 (MLK3) [nM] | Compound |
| --- | --- | --- | --- |
| + (+ indicates ≥500) | – | – | COc1cc(-c2cnc3[nH]cc(-c4ccc5[nH]ccc5c4)c3c2)cc(OC)c1OC [Example 1, 3-(1H-indol-5-yl)-5-(3,4,5-trimethoxyphenyl)-1H-pyrrolo[2,3-b]pyridine] |
| − (− indicates <500) | < 100 | – | Nc1ccc(-c2cnc3[nH]cc(-c4ccc5[nH]ccc5c4)c3c2)cn1 [Example 4, 5-(3-(1H-indol-5-yl)-1H-pyrrolo[2,3-b]pyridin-5-yl)pyridin-2-amine] |
| + (+ indicates ≥500) | < 100 | – | Nc1ncc(-c2cnc3[nH]cc(-c4ccc5[nH]ccc5c4)c3c2)cn1 [Example 9, 5-(3-(1H-indol-5-yl)-1H-pyrrolo[2,3-b]pyridin-5-yl)pyrimidin-2-amine] |
| − (− indicates <500) | < 100 | – | COc1cc(-c2cnc3[nH]cc(-c4cnc(N)nc4)c3c2)cc(OC)c1OC [Example 17, 5-(5-(3,4,5-trimethoxyphenyl)-1H-pyrrolo[2,3-b]pyridin-3-yl)pyrimidin-2-amine] |
| − (− indicates <500) | < 100 | – | COc1cc(-c2cnc3[nH]cc(-c4ccc(N)nc4)c3c2)cc(OC)c1OC [Example 18, 5-(5-(3,4,5-trimethoxyphenyl)-1H-pyrrolo[2,3-b]pyridin-3-yl)pyridin-2-amine] |
| – | < 100 | – | c1cc2cc(-c3c[nH]c4ncc(-c5ccc(CN6CCOCC6)cc5)cc34)ccc2[nH]1 [Example 184, 4-(4-(3-(1H-indol-5-yl)-1H-pyrrolo[2,3-b]pyridin-5-yl)benzyl)morpholine] |
| – | – | 100 to 1000 | FC1(F)CCN(Cc2ccc(-c3cnc4[nH]cc(-c5ccc6[nH]ccc6c5)c4c3)cc2)CC1 [Example 185, 5-(4-((4,4-difluoropiperidin-1-yl)methyl)phenyl)-3-(1H-indol-5-yl)-1H-pyrrolo[2,3-b]pyridine] |
| – | < 100 | – | CC(=O)N1CCN(Cc2ccc(-c3cnc4[nH]cc(-c5ccc6[nH]ccc6c5)c4c3)cc2)CC1C (stereo not drawn) [Example 188, 1-(4-(4-(3-(1H-indol-5-yl)-1H-pyrrolo[2,3-b]pyridin-5-yl)benzyl)-2-methylpiperazin-1-yl)ethanone] |
| – | < 100 | – | CC1CN(Cc2ccc(-c3cnc4[nH]cc(-c5ccc6[nH]ccc6c5)c4c3)cc2)CCN1C (stereo not drawn) [Example 189, 5-(4-((3,4-dimethylpiperazin-1-yl)methyl)phenyl)-3-(1H-indol-5-yl)-1H-pyrrolo[2,3-b]pyridine] |
| – | – | 100 to 1000 | CC(C)(C)C(=O)N1CCN(Cc2ccc(-c3cnc4[nH]cc(-c5ccc6[nH]ccc6c5)c4c3)cc2)CC1 [Example 191] |
| – | < 100 | – | CC(C)(C)CC(=O)N1CCN(Cc2ccc(-c3cnc4[nH]cc(-c5ccc6[nH]ccc6c5)c4c3)cc2)CC1 [Example 192] |
| – | < 100 | – | CCOC(=O)N1CCN(Cc2ccc(-c3cnc4[nH]cc(-c5ccc6[nH]ccc6c5)c4c3)cc2)CC1 [Example 193] |
| – | < 100 | – | COC(=O)N1CCN(Cc2ccc(-c3cnc4[nH]cc(-c5ccc6[nH]ccc6c5)c4c3)cc2)CC1 [Example 194] |
| – | < 100 | – | CC(C)C(=O)N1CCN(Cc2ccc(-c3cnc4[nH]cc(-c5ccc6[nH]ccc6c5)c4c3)cc2)CC1 [Example 196] |
| – | < 100 | – | CCC(=O)N1CCN(Cc2ccc(-c3cnc4[nH]cc(-c5ccc6[nH]ccc6c5)c4c3)cc2)CC1 [Example 197] |
| – | < 100 | – | COCC(=O)N1CCN(Cc2ccc(-c3cnc4[nH]cc(-c5ccc6[nH]ccc6c5)c4c3)cc2)CC1 [Example 198] |
| – | < 100 | – | CCS(=O)(=O)N1CCN(Cc2ccc(-c3cnc4[nH]cc(-c5ccc6[nH]ccc6c5)c4c3)cc2)CC1 [Example 199] |
| – | < 100 | – | CS(=O)(=O)N1CCN(Cc2ccc(-c3cnc4[nH]cc(-c5ccc6[nH]ccc6c5)c4c3)cc2)CC1 [Example 200] |
| – | < 100 | – | O=C(CCO)N1CCN(Cc2ccc(-c3cnc4[nH]cc(-c5ccc6[nH]ccc6c5)c4c3)cc2)CC1 [Example 201] |
| – | < 100 | – | COCCC(=O)N1CCN(Cc2ccc(-c3cnc4[nH]cc(-c5ccc6[nH]ccc6c5)c4c3)cc2)CC1 [Example 202] |
| – | < 100 | – | O=C(CC1CC1)N1CCN(Cc2ccc(-c3cnc4[nH]cc(-c5ccc6[nH]ccc6c5)c4c3)cc2)CC1 [Example 203] |
| – | < 100 | – | CC(C)CC(=O)N1CCN(Cc2ccc(-c3cnc4[nH]cc(-c5ccc6[nH]ccc6c5)c4c3)cc2)CC1 [Example 204] |
| – | < 100 | – | O=C1CCC(C(=O)N2CCN(Cc3ccc(-c4cnc5[nH]cc(-c6ccc7[nH]ccc7c6)c5c4)cc3)CC2)N1 (stereo not drawn) [Example 205] |
| – | – | 100 to 1000 | FC(F)(F)CN1CCN(Cc2ccc(-c3cnc4[nH]cc(-c5ccc6[nH]ccc6c5)c4c3)cc2)CC1 [Example 207, 3-(1H-indol-5-yl)-5-(4-((4-(2,2,2-trifluoroethyl)piperazin-1-yl)methyl)phenyl)-1H-pyrrolo[2,3-b]pyridine] |
| – | – | 100 to 1000 | CN1CCN(Cc2ccc(-c3cnc4[nH]c(=O)n(-c5ccc6[nH]ccc6c5)c4n3)cc2)CC1 [Example 212, 1-(1H-Indol-5-yl)-6-[4-(4-methyl-piperazin-1-ylmethyl)-phenyl]-1,3-dihydro-imidazo[4,5-b]pyrazin-2-one] |

| Compound | AUC Brain [1] | IC50 (MLK3; [2]) [nM] | IC50 (MLK3) [nM] |
| --- | --- | --- | --- |
| CN1CCN(Cc2ccc(-c3cnc4[nH]cc(-c5ccc6[nH]ccc6c5)c4c3)cc2)CC1 [Example 32, 3-(1H-indol-5-yl)-5-(4-((4-methylpiperazin-1-yl)methyl)phenyl)-1H-pyrrolo[2,3-b]pyridine] | + (+ indicates ≥500) | – | – |
